Data: publication PMC12632398 (bioRxiv, 2025)
Non-standard residues stand in square brackets, D forms with d. No end group written: not given here. Dap = NC[C@H](N)C(=O)O

Key:
[1] = system: MCF-7 breast cancer cells; test: Cell viability assay for MCF-7, CellTiter Glo 2.0; assay type: cell-based; conditions: MCF-7 cells, 48 h; positive control compared with MP23
HaloTag protein in cells = test: Time-resolved CAPA; assay type: cell-based; conditions: 5μM MP1 and 1.62μM JQ1; reproduced in two independent experiments
[2] = system: Cells that express the HaloTag protein; conditions: CAPA; ratio of CP50 to that of JQ-1-Ct
HEK293 cells = test: Cell viability, CellTiter Glo 2.0, HEK293; assay type: cell-based; conditions: 100 μM, 12 hours, CellTiter Glo 2.0, three independent experiments

Row | fold higher (poorer) CP50 than JQ-1-Ct [2] | Compound | potency relative to MP23, MCF-7 viability [1] | kinetics of HaloTag protein alkylation, time-resolved CAPA (HaloTag protein in cells) | effect on the viability of HEK293 cells (HEK293 cells)
1 | – | CC(C)[C@@H](CS(=O)(=O)C(C)C)N1C(=O)[C@@](C)(CC(=O)O)C[C@H](c2cccc(Cl)c2)[C@H]1c1ccc(Cl)cc1 [Navtemadlin] | about ten-fold more potent | – | –
2 | 3.4 fold | [Dap]AWFK-NH2 (also: sidechain bridge or staple (positions not given here)) [MP1-Ct] | – | relatively rapid | no effect
